# Assay results from patent publication US6245791A (Aventis Pharma S.A., priority 1998, dated 2001).
# Test system: glutamate uptake in synaptosomes of rat cerebellum
# Protocol: The increase in glutamate uptake is evaluated in a suspension of synaptosomes prepared from rat cerebellar cells.
# The synaptosomes were prepared according to a modification of the method described by Robinson, M. B., et al., (Brain Res., 544: 196-202, 1991). The tissues of cerebellum or of other regions of the brain of male rats of the Sprague-Dawley breed are homogenized in a sucrose solution (0.32 M) at 4° C. and then centrifuged at 800 g for 10 minutes. The supernatant is then recentrifuged at 20,000 g for 20 minutes. The centrifugation pellet obtained is resuspended in an identical sucrose solution and then centrifuged again at 20,000 g for 20 minutes. The synaptosomes are contained in this second centrifugation pellet. They are suspended and used immediately for measuring glutamate uptake. This is monitored with the aid of tritium-labelled glutamate ([^3 H]glutamate) diluted in a solution of nonradioactive glutamate. After 3 minutes of incubation at 37° C., the synaptosomes are separated from the incubation medium by filtration. […] This radioactivity is proportional to the glutamate uptake. The results are expressed as specific uptake, that is to say the uptake which depends on the presence of sodium ions in the incubation medium. It can be distinguished from the nonspecific uptake which corresponds to the radioactivity measured after equimolar replacement of sodium chloride in the incubation medium with choline chloride. The specific uptake corresponds to the total radioactivity minus the radioactivity measured in the presence of choline chloride.
# The data are the mean values±SEM of n=8 independent observations.
structure (smiles),measurement,setting,value
"Nc1nc2ccc(OC(F)(F)F)cc2s1 [riluzole, 2-amino-6-trifluoromethoxybenzothiazole]",dependence of the increase in glutamate uptake on the age of the rats,"cerebellum, postnatal period to adult age, stable after about 10 weeks",increases with the age of the rats
same,uptake of radioactive glutamate (result in words),"rat cerebellar synaptosomes, increasing concentrations of riluzole (FIG. 1)",increased in a concentration-dependent manner
same,maximum increase in glutamate uptake,"rat cerebellar synaptosomes, specific uptake, n=8, 3 min",~40 % of the control values
